According to patent publication US20210275624A1, “TREATMENTS FOR IMPROVING OR LESSENING IMPAIRMENT OF MITOCHONDRIAL FUNCTION” (priority 2020, published 2021):
Square brackets hold non-standard residues; d marks the D form. Peptide text beside a SMILES is read from it. Cya = N[C@@H](CS(=O)(=O)O)C(=O)O

Tested on: human RPE cells
Assay type: cell-based
Settings: RSG 0.4 mM co-treatment with HQ 175 μM, 1.5 hours, vs HQ-treated cells
Description: RPE cells were seeded in triplicate wells of collagen-coated XF 24-well plates and grown for 24 hours. RPE cells that had just reached confluence were washed with SF-MEM and treated for 1.5 hours with HQ (175 μM) with or without RSG (0.4 mM). Media were removed and cells were washed with XF base medium containing 1 mM sodium pyruvate, 2 mM glutamine and 8 mM glucose, pH 7.4. The cells were incubated for 1 hour at 37° C. in a C02-free incubator. Oxygen consumption rate (OCR) was measured by Seahorse XFe24 flux analyzer under basal conditions followed by the sequential addition of 1 μM oligomycin, 1 μM tri-fluorocarbonylcyanide phenylhydrazone (FCCP), and 1 μM rotenone and antimycin A. Maximal OCR was the difference in OCR between FCCP-induced respiration and OCR after injection of antimycin A. Mitochondrial spare respiratory capacity was the difference between maximal respiration and basal OCR. Media were removed and the total proteins were extracted for BCA protein assay after OCR measurements. OCRs were normalized to total protein content.

`C[C@@H](O)[C@H](NC(=O)[C@H](CS(=O)(=O)O)NC(=O)CNC(=O)[C@H](CCCNC(=N)N)NC(=O)CN)C(=O)N1CCC[C@H]1C(=O)O` [Risuteganib, Glycyl-L-arginylglycyl-3-sulfo-L-alanyl-L-threonyl-L-proline] (H-GRG[Cya]TP-OH) was tested, and the ATP production was “significantly increased” and the spare respiratory capacity was “significantly increased”.
